# Marks after values point to notes of the source that are not given here.
# Assays:
# liver cancer HepG2 cells = assay: MTT cell growth and proliferation experiment, HepG2; format: cell-based; parameters: key to Inhibition Rate: (control OD570 − test OD570)/control OD570, as fraction; conditions: concentration not given; for Inhibition Rate: fraction
# Method in brief: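 After treatment, 20 ul/well of MTT (5 g/L) was added for 4 h at 37° C. The medium was then removed and 20 ul/well DMSO added to dissolve the crystals. Plates were shaken 10 min and read at 570 nm. Inhibition rate was (control OD570 − experimental OD570)/control OD570 × 100%, averaged over three experiments.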
# NB4 cells = assay: Cell cycle analysis by flow cytometer, NB4; format: cell-based; parameters: S %: dose or concentration left out as unconfirmed; conditions: 72 h
# Method in brief: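 NB4 and K562 cells in RPMI1640 with 10% FBS were exposed to compounds […] for 72 h. Then they were fixed in 70% cold ethanol and stained with 5 ug/ml propidium iodide for cell-cycle profiling by flow cytometry.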
# [1] = patient, dosage 200 mg/day; cited from earlier work
# apoptosis = conditions: cited from earlier work
# [2] = HepG2, MTT time gradient, in DMSO, 1 d
# [3] = HepG2, MTT time gradient, in DMSO, 2 d
# [4] = HepG2, MTT time gradient, in DMSO, 3 d
# [5] = HepG2, MTT time gradient, in DMSO, 7 d
# [6] = HepG2, MTT time gradient, in ethanol, 1 d
# [7] = HepG2, MTT time gradient, in ethanol, 2 d
# [8] = HepG2, MTT time gradient, in ethanol, 3 d
# [9] = HepG2, MTT, 3 d, Table 3 control drug in DMSO
# [10] = HepG2, MTT, 3 d, Table 3 control drug in ethanol
# [11] = HepG2, Table 5 repeat MTT, 3 days, DMSO
# [12] = HepG2, Table 5 repeat MTT, 3 days, ethanol
structure (smiles),measurement,setting,value
"CC1=C(/C=C/C(C)=C/C=C/C(C)=C/C(=O)Nc2ccc(O)cc2)C(C)(C)CCC1 [Fenretinide, reference compound]",OD Value (x ± s),liver cancer HepG2 cells; [2],1.61 ± 0.16
same,Inhibition Rate,liver cancer HepG2 cells; [2],0.09
same,OD Value (x ± s),liver cancer HepG2 cells; [3],1.37 ± 0.07
same,Inhibition Rate,liver cancer HepG2 cells; [3],0.19
same,OD Value (x ± s),liver cancer HepG2 cells; [4],1.07 ± 0.20
same,Inhibition Rate,liver cancer HepG2 cells; [4],0.13
same,OD Value (x ± s),liver cancer HepG2 cells; [5],1.17 ± 0.06
same,Inhibition Rate,liver cancer HepG2 cells; [5],0.14
same,OD Value (x ± s),liver cancer HepG2 cells; [6],1.67 ± 0.05
same,Inhibition Rate,liver cancer HepG2 cells; [6],0.05
same,OD Value (x ± s),liver cancer HepG2 cells; [7],1.31 ± 0.09
same,Inhibition Rate,liver cancer HepG2 cells; [7],0.22
same,OD Value (x ± s),liver cancer HepG2 cells; [8],1.06 ± 0.09
same,Inhibition Rate,liver cancer HepG2 cells; [8],0.14
same,OD Value (x ± s),liver cancer HepG2 cells; [9],1.27 ± 0.25
same,Inhibition Rate,liver cancer HepG2 cells; [9],0.25
same,OD Value (x ± s),liver cancer HepG2 cells; [10],1.28 ± 0.21
same,Inhibition Rate,liver cancer HepG2 cells; [10],0.24
same,OD Value (x ± s),liver cancer HepG2 cells; [11],1.469 ± 0.078
same,Inhibition Rate,liver cancer HepG2 cells; [11],0.322*
same,OD Value (x ± s),liver cancer HepG2 cells; [12],1.422 ± 0.123
same,Inhibition Rate,liver cancer HepG2 cells; [12],0.343*
same,G1 %,NB4 cells,63.25%
same,G2 %,NB4 cells,4.03%
same,S %,NB4 cells,33.72%
same,plasma concentration,[1],lower than 1 μM
same,effective concentration required to generate apoptosis in vivo,apoptosis,101 µM

# — US8110703B2, “Retinoid derivative and pharmaceutical composition and use thereof” (Anhui Medical University, priority 2008, dated 2012)
